Laboratory results: paper PMC11989107, “Biochemical and Structural Characterization of a Highly Glucose-Tolerant β-Glucosidase from the Termite Reticulitermes perilucifugus” (International Journal of Molecular Sciences, 2025)

Columns and labels:
RpBgl8 [1] = biological target: T1, RpBgl8 (Reticulitermes perilucifugus, UniProt A0A7G5VX36, F124W); assay: pNPG hydrolysis with added glucose; assay type: biochemical; details: 5 mM pNPG, phosphate buffer pH 7.0, 37 °C, reference of the reduction (no glucose or wild type) not told
T1 construct: forward primer encodes MSALKF

RpBgl8 [2] = biological target: T2, RpBgl8 (Reticulitermes perilucifugus, UniProt A0A7G5VX36); assay: pNPG hydrolysis with added glucose; assay type: biochemical
T2 construct: forward primer encodes MSALKF
T2 sequence (A0A7G5VX36 entry or part of it): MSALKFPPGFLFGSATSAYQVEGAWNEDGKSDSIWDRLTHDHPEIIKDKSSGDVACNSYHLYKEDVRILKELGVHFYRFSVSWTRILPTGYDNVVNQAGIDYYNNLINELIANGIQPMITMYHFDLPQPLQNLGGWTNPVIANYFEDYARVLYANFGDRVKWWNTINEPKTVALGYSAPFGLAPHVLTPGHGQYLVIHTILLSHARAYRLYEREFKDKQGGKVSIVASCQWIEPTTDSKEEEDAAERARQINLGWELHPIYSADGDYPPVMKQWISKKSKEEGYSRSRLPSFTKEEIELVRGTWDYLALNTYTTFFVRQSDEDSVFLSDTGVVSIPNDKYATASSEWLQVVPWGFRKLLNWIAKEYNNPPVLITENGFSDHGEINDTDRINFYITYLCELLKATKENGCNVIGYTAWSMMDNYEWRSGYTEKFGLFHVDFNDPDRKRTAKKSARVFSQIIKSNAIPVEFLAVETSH

T1 sequence (A0A7G5VX36 entry or part of it F124W): as the sequence (A0A7G5VX36 entry or part of it) above, with F124W counted along it

- % reduction of activity at 4.0 M glucose (RpBgl8 [1]): 54.2%
- activity at 4 M (RpBgl8 [2]): 82%
Compound: OC[C@H]1OC(O)[C@H](O)[C@@H](O)[C@@H]1O (some centres unmarked) [glucose]
